Reference: a melting point compilation (Tetko et al.; mined from patent text by program, amines drawn as free bases though some values may be those of a salt)

Row | SMILES | melting point [°C]
1 | O=C(Nc1cccc2cc(C(=O)O)[nH]c12)c1cc(OCc2ccccc2F)cc(OCc2ccccc2F)c1 | 271 to 273
2 | CCC(C)N1C(=O)c2ccc(C)nc2C1=O (stereo not given) | 105 to 106
3 | CCOC(=O)C1=C(N)NC2=C(C(=O)CCC2)C1c1ccccc1-c1ccccc1 (stereo not given) | 248
4 | Cc1nc(C)c(C(=O)O)c(-c2ccccc2F)c1C(=O)O | > 285
5 | O=C(NC(O)C(F)(F)F)c1ccc(Cl)cc1 (stereo not given) | 140
6 | Cc1csc(-c2ccc3c(c2)c2cc(-c4ccc(Cl)cc4Cl)c(=O)n(C)c2n3C)n1 | 255 to 257
7 | Cc1c(C(=O)N[C@@H]2CN3CCC2CC3)c2ccccc2n1C | 176 to 177
8 | Cn1cc(-c2cccc(F)c2)c(=O)c(-c2cccc(F)c2)c1 | 149 to 151
9 | Cc1ccc(S(=O)(=O)NC(=O)OCCc2ccc(-n3c(CCCc4ccncc4)nc4cc(C(F)(F)F)c(Cl)cc43)cc2)cc1 | 80 to 87
10 | COc1ccc(-c2cccc(-c3nc(-c4ccc(C(F)(F)F)cc4)oc3C)c2)cc1 | 93 to 94
11 | C#CCCN1CC=C(c2ccccc2)CC1 | 36.5 to 37.5
12 | CC(=O)Nc1ccc(Nc2ncnc3[nH]cc(C(=O)c4ccccc4)c23)cc1 | 263 to 264
13 | CCCCCn1c2ccccc2c2cc(C(=O)N3CCOCC3)ccc21 | 99 to 101
14 | CCCCCc1c(/C=C/C(=O)Oc2ccc([N+](=O)[O-])cc2)oc2cc(OC)ccc12 | 120 to 122
15 | CN(C)C[C@H]1CCSc2ccccc2[C@]1(O)c1cccc(O)c1 (racemic) | 188 to 190
16 | Nc1nn2ccccc2c1N | 190
17 | COCCN1CCN(CCc2ccccc2Nc2ncnc3[nH]cc(C(=O)c4ccccc4)c23)CC1 | 192 to 193
18 | CCCCC1OC(=O)c2cc(NC=O)ccc21 (stereo not given) | 127 to 129
19 | CCOC(=O)c1cc2c(s1)CCC2=O | 54 to 55
20 | CN(C)CCNc1ccnc2cc(C(F)(F)F)ccc12 | 110 to 113
21 | O=C(NC(Cc1ccccc1)C(=O)O)c1ccc2cc(Oc3ccccc3)ccc2c1 (stereo not given) | 179 to 180
22 | COc1ccc(-c2onc3ccc(Br)cc23)cc1 | 137
23 | O=S(=O)(c1ccccc1)N1CCC(Nc2nc(OCC(F)(F)F)nc(-n3ccnc3)n2)CC1 | 201 to 203
24 | CNc1cc(Oc2ccc3c(C(=O)Nc4ccc(N5CCOCC5)c(C(F)(F)F)c4)cccc3c2)ncn1 | 156 to 157

Row | SMILES | melting point [°C]
25 | COc1cc(C(=O)C(C#N)C#N)cc(OC)c1OC | 158 to 160
26 | CCOC(=O)c1cn(C)nc1OCc1ccccc1 | 66 to 67
27 | CCN(C(=O)CCCCc1nnnn1C1CCCCC1)C1CCCCC1 | 92 to 95
28 | CCCCCCCCCc1ccc(C(=O)CC(=O)C(=O)OC)cc1 | 52 to 53.5
29 | CC(C)C(CO)(CO)[N+](=O)[O-] | 67 to 72
30 | COC(=O)c1ccc(Cl)c2nc(C(C)(C)C)oc12 | 130 to 131
31 | Cc1cc(Cl)cc(C(=O)NC2(C)CS(=O)(=O)C2)c1NC(=O)c1cc(OCC(F)(F)F)nn1-c1ncccc1Cl | > 250
32 | CC(C)(NS(=O)(=O)c1ccccc1)c1ccccc1 | 114 to 115
33 | CCCN(c1nc(-c2ccc(OC)cc2Cl)c(C)s1)c1cc(C(C)=O)ccc1OC | 50
34 | CCCCCCCCCCCC12OC(C)CN1CC(C)O2 (stereo not given) | > 130
35 | N#Cc1c(N2CCN(C(=O)c3cccs3)CC2)c2ccccc2n(-c2ccccc2)c1=O | 289
36 | CN(C)S(=O)(=O)n1cnc(-c2ccc(Cl)cc2Cl)c1 | 169 to 171
37 | CC1CCCC2C1N2CC(O)Cn1ccnc1[N+](=O)[O-] (stereo not given) | 124
38 | O=C(O)CC(Cc1c[nH]c2ccccc12)C(=O)O (stereo not given) | 144 to 145
39 | Cc1nc(-n2ccc(O)cc2=O)sc1C(=O)NCc1ccc(F)cc1 | 280 to 282
40 | CCC(=O)OC1(C)CCCC2C3C=CC(C3)C21 (stereo not given) | 30
41 | OCCC(O)OCn1cc(I)c2c(Cl)ncnc21 (stereo not given) | 155 to 156
42 | CC#CCOc1ccc([S@](=O)[C@@H](CCCCCC)C(=O)O)cc1 | 112
43 | CCOC(=O)Cc1cccc(C(=O)c2ccccc2)c1NC(C)=O | 133 to 134
44 | NS(=O)(=O)Cc1cccc(NC(=O)c2cnn3c(C(F)(F)F)cc(-c4ccc(C(F)(F)F)cc4)nc23)c1 | 298
45 | CC(=Cc1cc(Cl)ccc1O)[N+](=O)[O-] | 104 to 106
46 | CCCc1c(OCCOc2ccccc2C(=O)NCCCCc2cccnc2)ccc(C(C)=O)c1O | 77 to 80
47 | O=c1[nH]c2ncc(-c3ccc(O)cc3)nc2n1CC1CCCC1 | 296 to 297

More lines, now with the values ahead:

Row | melting point [°C] | SMILES
48 | 208 to 210 | CCOC(=O)c1nc(-c2cccc([N+](=O)[O-])c2)[nH]c1-c1ccc(OC)cc1
49 | 88 to 89 | CCn1c(=O)cc(C2CCCCC2)c2cccnc21
50 | 211 to 213 | CCCc1nn(CC)c2c(=O)[nH]c(C)nc12
51 | 140 to 142 | CN1CCC(N(C)S(=O)(=O)c2ccc(Nc3nc(Cl)cc(Nc4ccc(F)cc4)n3)cc2)CC1
52 | 36.9 to 38.4 | CCCCCCCCCCC1(CCCCCCCCCC)c2cc(Br)ccc2-c2ccc(-c3cccs3)cc21
53 | 204 to 206 | c1ccc2c3c([nH]c2c1)CCN(CCCCc1ccncc1)C3
54 | 188 to 194 | CCOC1=NS(=O)(=O)c2cc(NC=O)ccc21
55 | 71 to 73 | CC(C)(C)n1nnc(-c2ccccc2-c2ccc(C=O)cc2)n1
56 | 252 | Nc1cc(-c2noc(-c3cnn4c(C(F)(F)F)cc(-c5ccc(Cl)cc5)nc34)n2)ccn1
57 | 152 | CC(C)Cc1nccc2c(CC(=O)O)cccc12
58 | 305 to 307 | Clc1ccc2nc(Cl)c3nnc(-c4ccccc4)n3c2c1
59 | 95 to 96 | CCOC(=O)Nc1ccc(OC)c(OC)c1C1OCCO1
60 | 135 to 136 | COC(=O)c1cnc(OCc2ccccn2)nc1NCc1ccc(OC)c(Cl)c1
61 | 68 to 71 | CCCc1c(OCCCCOCCCCOc2c(C(C)=O)ccc(OCC(=O)O)c2CCC)ccc(C(C)=O)c1O
62 | 223 to 224 | Cn1c(=O)c(=NO)nc(-c2ccccc2)c2cnccc21
63 | > 250 | Cc1c2c(nn1Cc1ccccc1)c(N)nc1ccccc12
64 | 134 to 135 | NC(=O)c1ccc(OCCNCC(O)COc2nccnc2Cl)cc1 (stereo not given)
65 | 143 to 144 | CC(O)=C(C#N)C(=O)Nc1cc(Cl)ccc1Cl
66 | 262 to 263 | CCC=Nc1cc(CO)cc(Nc2c3ccccc3nc3ccccc23)c1
67 | 124 to 128 | CC(C)CCCC(C)C1CCC2C3CC=C4CC(NC(=O)CCN(C)C(=O)OC5c6ccccc6-c6ccccc65)CCC4(C)C3CCC12C (stereo not given)
68 | 233 to 237 | O=c1ccc(-c2ccc(OC3CCN(C4CCCC4)CC3)nc2)n[nH]1
69 | 129 to 130 | O=C(O)Cc1cc([N+](=O)[O-])ccc1Oc1ccc(F)cc1
70 | 73 to 76 | Cc1coc(C)c1-c1nc2cc(Cl)cc(CCc3ccccn3)c2o1
71 | 102 | Cc1cccc(S(=O)(=O)N2CCCC2c2ccc(F)cc2)c1 (racemic)
72 | 90 to 92 | O=C(O)CCCCCCC1C(=O)NC(=O)N1CCCCCc1ccccc1 (stereo not given)
73 | 234 | Cc1cccc(C(=O)N(C(=O)c2cccc(C)c2)c2nc3ccccc3c(NCc3ccccc3)c2C#N)c1
74 | 186 | CCC(C(=O)c1ccc(Cl)cc1)n1ncn(-c2ccc(N3CCN(c4ccc(O)cc4)CC3)cn2)c1=O (stereo not given)

Row | melting point [°C] | SMILES
75 | 240 to 241 | CC(=O)OCCOCn1cnc2c(=O)[nH]c(N)nc21
76 | 113 to 120 | Cc1ccc(Cc2cnc(NCCCNc3cccc(C)n3)[nH]c2=O)cn1
77 | 83 to 84 | CCCn1c(=O)cc(Cl)n(CC#N)c1=O
78 | 140 | COc1ccc(SCn2cc(Cl)cnc2=O)cc1
79 | 167 to 170 | O=c1cc(-c2ccoc2)c2ccc(S)cc2o1
80 | 200 to 201 | CCOC(=O)c1cn(Cc2ccccc2OC)c2sc(-c3ccc(OC)cc3)c(CBr)c2c1=O
81 | 184 to 186 | CCC(C)(CC)NC(=NC#N)Nc1cccnc1
82 | 93.5 to 95.5 | CCC(CC)Oc1nc(C)nc(Oc2c(C)cc(C)cc2C)c1C
83 | > 300 | O=C(O)/C=C/c1ccc(-c2nc3c(=O)n(CC4CCCC4)c(=O)n(CC4CCCC4)c3[nH]2)cc1
84 | 137 to 138 | COc1cc2c(cc1O)CCN(Cc1ccccn1)C2
85 | 68 to 70 | Nc1ccc(CCc2ccc(Cl)c(Cl)c2)cc1
86 | 116 | CC(C)(C)OC(=O)NCCNS(=O)(=O)c1cc([N+](=O)[O-])c(Cl)s1
87 | 123 to 128 | COc1cc(Nc2c(C#N)cnc3cc(-c4ccc(CNCCS(=O)(=O)c5ccccc5)o4)ccc23)c(Cl)cc1Cl
88 | 177 to 180 | Cc1cc(C)c(-c2nc(C)cc3c2ncn3Cc2ccccc2)c(C)c1
89 | 64 to 66 | COCOc1cc(NC(=O)OC(C)(C)C)cc2ccccc12
90 | 77 to 78 | CC(C)(C)OC(=O)N[C@@H](CC(=O)NCCC(=O)OCc1ccccc1)C(=O)OCc1ccccc1
91 | 192 | Cc1cc(C(=O)NC(=N)N)no1
92 | 282 | Nc1ncnc2c1ncn2[C@@H]1C[C@H](O)[C@@H](O)[C@H]1O (racemic)
93 | 164 to 165 | CCOc1ccc(C2=NN(c3ccc(C4=NNC(=O)CC4C)cc3)C(=O)C3CC=CCC23)cc1OCC (stereo not given)
94 | 150 to 155 | CC(C)(N)CNC(=O)CNC(=O)Cc1ccccc1
95 | > 300 | CCn1cc(C(=O)O)c(=O)c2cc(F)c(N3Cc4ccc(C(=O)OC)cc4C3)cc21
96 | 193 to 195 | CCOC(=O)c1ncn(-c2nc(C)cs2)c1S
97 | 144 to 146 | CC(C)(Sc1nc2ccccc2cc1-c1ccccc1)C(=O)O
98 | 126 | CCCCNC(=O)N(C)c1cccc(-c2ccc(C=C(OCC)C(=O)O)cc2)c1
99 | 102 to 105 | O=C1C(CCO)Oc2cc([N+](=O)[O-])ccc2N1Cc1ccccc1 (stereo not given)
100 | 215 | O=c1c2ccc(Cl)cc2[nH]c2c(O)nn(Cc3ccccc3F)c(=O)c12
